Data taken from patent US9862686B2, “N1-sulfonyl-5-fluoropyrimidinone derivatives” (Adama Makhteshim Ltd., priority 2009, dated 2018).
Where two headings read alike, the source gives them in different places.

How the values were obtained:
[1] = system: Mycosphaerella graminicola; Anamorph: Septoria tritici; Bayer Code SEPTTR; assay: Fungicidal activity: leaf blotch of wheat, protectant and curative treatment of inoculated wheat plants; type: in vivo; details: Zymoseptoria tritici, 100 ppm, wheat plants (variety Yuma), percent control vs untreated inoculated plants
Protocol: Evaluation of Fungicidal Activity: Leaf Blotch of Wheat (Mycosphaerella graminicola; Anamorph: Septoria tritici; Bayer Code SEPTTR)
Wheat plants (variety Yuma) were grown from seed in a greenhouse in 50% mineral soil/50% soil-less Metro mix until the first leaf was fully emerged, with 7-10 seedlings per pot. These plants were inoculated with an aqueous spore suspension of Septoria tritici either prior to or after fungicide treatments. After inoculation the plants were kept in 100% relative humidity (one day in a dark dew chamber followed by two to three days in a lighted dew chamber) to permit spores to germinate and infect the leaf. The plants were then transferred to a greenhouse for disease to develop.
The following table presents the activity of typical compounds of the present disclosure when evaluated in these experiments. The effectiveness of the test compounds in controlling disease was determined by assessing the severity of disease on treated plants, then converting the severity to percent control based on the level of disease on untreated, inoculated plants.
In each case of Table II the rating scale is as follows: […]

[2] = 24 h, One-Day Protectant (1DP), read-out: SEPTTR 100 PPM 1DP (% Disease Control rating)
[3] = 72 h, Three-Day Curative (3DC), read-out: SEPTTR 100 PPM 3DC (% Disease Control rating)

Cn1cnc(S(=O)(=O)n2cc(F)c(N)nc2=O)c1 [Cmpd 11]
pest or weed control at 100 ppm [1, 2]: 26 to 50%
pest or weed control at 100 ppm [1, 3]: 26 to 50%
melting point: 235 to 237 °C

Cc1cc(Oc2ncc(C(F)(F)F)cc2Cl)ccc1S(=O)(=O)n1cc(F)c(N)nc1=O [Cmpd 23]
pest or weed control at 100 ppm [1, 2]: 76 to 100%
pest or weed control at 100 ppm [1, 3]: 76 to 100%
melting point: 132 °C (dec.)

CS(=O)(=O)c1ccc(S(=O)(=O)n2cc(F)c(N)nc2=O)cc1 [Cmpd 15]
pest or weed control at 100 ppm [1, 2]: 51 to 75%
pest or weed control at 100 ppm [1, 3]: 76 to 100%
melting point: 220 to 223 °C

CC(=O)Nc1nc(=O)n(S(=O)(=O)c2ccc(Cl)cc2)cc1F [Cmpd 34]
pest or weed control at 100 ppm [1, 2]: 76 to 100%
pest or weed control at 100 ppm [1, 3]: 76 to 100%
melting point: 159 to 162 °C

COc1ccc(S(=O)(=O)n2cc(F)c(N)nc2=O)cc1 [Cmpd 26]
pest or weed control at 100 ppm [1, 2]: 76 to 100%
pest or weed control at 100 ppm [1, 3]: 76 to 100%
melting point: 182.5 °C
